Test results: patent US11806441B2, “Viscoelastic hydrogels with fast stress relaxation” (President and Fellows of Harvard College, priority 2014, dated 2023)

Test system: U2OS cells
Test: U2OS cells plated on 2D alginate substrates: spreading, YAP localization, proliferation
Type: cell-based, human
Settings: 10 μM, initial Young's modulus 1.4 kPa, RGD 1500
Experimental: Plating of cells on gels. 1 mm thick alginate hydrogels were prepared as previously described (Zhao et al. J. Appl. Phys. 107, 63509 (2010); and Huebsch et al. Nat Mater 9, 518-526 (2010)). Following gelation, 15 mm disks were punched out, and these disks were washed thoroughly 4 times over 2 days in serum free media to remove any excess calcium. […] Cells were allowed to spread for 20 hours, and then were fixed and stained for analysis. Only isolated cells, without any cell-cell contacts, were analyzed. Immunohistochemistry. For immunohistochemical staining, media was first removed from the gels. The gels were then fixed with 4% paraformaldehyde in serum free DMEM at 37° C. for 30-45 minutes. Gels were then washed 3 times in PBS containing calcium (cPBS). Gels from 3D studies were then incubated overnight in 30% sucrose in cPBS at 4° C. […] Images of all single cells were then thresholded manually based on the actin stain, and the area of the thresholded cell body was determined using a custom macro in ImageJ (NIH). […] The YAP nuclear localization ratio was then determined as the summed intensity of the YAP signal within the nucleus normalized by the nuclear area divided by the summed intensity of the YAP signal outside of the nucleus normalized by the non-nuclear cytoskeleton area.

C[C@@H](N)[C@H]1CC[C@H](C(=O)Nc2ccncc2)CC1 [Y-27632]
effect on increased cell spreading on stress relaxing substrate: abrogated the increased cell spreading
